From ChEMBL document CHEMBL3045421, “5-Nitro-heteroarylidene analogs of 2-thiazolylimino-4-thiazolidinones as a novel series of antibacterial agents” (2013)

Legend:
Type in all cases: functional
Helicobacter pylori [1] = assay: Antibacterial activity against Helicobacter pylori strain 2 assessed as diameter of growth inhibition zone at 8 ug/disk after 3-5 days by filter paper disk diffusion method; conditions: read-out: DIZ
Klebsiella pneumoniae = assay: microbe, parasite or virus in culture; conditions: ATCC 10031, 24 h
Description: Antibacterial activity against Klebsiella pneumoniae ATCC 10031 assessed as growth inhibition after 24 hr by microdilution method

Helicobacter pylori [2] = assay: Antibacterial activity against Helicobacter pylori strain 2 assessed as diameter of growth inhibition zone at 64 ug/disk after 3-5 days by filter paper disk diffusion method; conditions: read-out: DIZ
Helicobacter pylori [3] = assay: Antibacterial activity against Helicobacter pylori strain 2 assessed as diameter of growth inhibition zone at 32 ug/disk after 3-5 days by filter paper disk diffusion method; conditions: read-out: DIZ
Helicobacter pylori [4] = assay: Antibacterial activity against Helicobacter pylori strain 3 assessed as diameter of growth inhibition zone at 8 ug/disk after 3-5 days by filter paper disk diffusion method; conditions: read-out: DIZ
Helicobacter pylori [5] = assay: Antibacterial activity against Helicobacter pylori strain 2 assessed as diameter of growth inhibition zone at 16 ug/disk after 3-5 days by filter paper disk diffusion method; conditions: read-out: DIZ
Helicobacter pylori [6] = assay: Antibacterial activity against Helicobacter pylori strain 1 assessed as diameter of growth inhibition zone at 32 ug/disk after 3-5 days by filter paper disk diffusion method; conditions: read-out: DIZ
Helicobacter pylori [7] = assay: Antibacterial activity against Helicobacter pylori strain 1 assessed as diameter of growth inhibition zone at 16 ug/disk after 3-5 days by filter paper disk diffusion method; conditions: read-out: DIZ
Pseudomonas aeruginosa = assay: microbe, parasite or virus in culture; conditions: ATCC 9027, 24 h
Description: Antibacterial activity against Pseudomonas aeruginosa ATCC 9027 assessed as growth inhibition after 24 hr by microdilution method

Helicobacter pylori [8] = assay: Antibacterial activity against Helicobacter pylori strain 1 assessed as diameter of growth inhibition zone at 8 ug/disk after 3-5 days by filter paper disk diffusion method; conditions: read-out: DIZ
[9] = tested on: Staphylococcus epidermidis; assay: microbe, parasite or virus in culture; conditions: ATCC 12228, 24 h
Description: Antibacterial activity against Staphylococcus epidermidis ATCC 12228 assessed as growth inhibition after 24 hr by microdilution method

Helicobacter pylori [10] = assay: Antibacterial activity against Helicobacter pylori strain 3 assessed as diameter of growth inhibition zone at 32 ug/disk after 3-5 days by filter paper disk diffusion method; conditions: read-out: DIZ
Helicobacter pylori [11] = assay: Antibacterial activity against Helicobacter pylori strain 3 assessed as diameter of growth inhibition zone at 64 ug/disk after 3-5 days by filter paper disk diffusion method; conditions: read-out: DIZ
Staphylococcus aureus = assay: microbe, parasite or virus in culture; conditions: ATCC 6538p, 24 h
Description: Antibacterial activity against Staphylococcus aureus ATCC 6538p assessed as growth inhibition after 24 hr by microdilution method

Bacillus subtilis = assay: microbe, parasite or virus in culture; conditions: ATCC 6633, 24 h
Description: Antibacterial activity against Bacillus subtilis ATCC 6633 assessed as growth inhibition after 24 hr by microdilution method

Escherichia coli = assay: microbe, parasite or virus in culture; conditions: ATCC 8739, 24 h
Description: Antibacterial activity against Escherichia coli ATCC 8739 assessed as growth inhibition after 24 hr by microdilution method

Helicobacter pylori [12] = assay: Antibacterial activity against Helicobacter pylori strain 1 assessed as diameter of growth inhibition zone at 64 ug/disk after 3-5 days by filter paper disk diffusion method; conditions: read-out: DIZ
Helicobacter pylori [13] = assay: Antibacterial activity against Helicobacter pylori strain 3 assessed as diameter of growth inhibition zone at 16 ug/disk after 3-5 days by filter paper disk diffusion method; conditions: read-out: DIZ

MIC (Klebsiella pneumoniae): > 100 µg/mL
MIC (Pseudomonas aeruginosa): > 100 µg/mL
MIC [9]: > 100 µg/mL
MIC (Staphylococcus aureus): > 100 µg/mL
MIC (Bacillus subtilis): > 100 µg/mL
MIC (Escherichia coli): > 100 µg/mL
Compound: O=C1N/C(=N\c2nc3ccccc3s2)S/C1=C\C1C(=O)Nc2ccccc21 (stereo not drawn)
zone of inhibition at 8 µg/disc (Helicobacter pylori [1]): 11 mm
zone of inhibition at 64 µg/disc (Helicobacter pylori [2]): 18 mm
zone of inhibition at 32 µg/disc (Helicobacter pylori [3]): 16 mm
zone of inhibition at 8 µg/disc (Helicobacter pylori [4]): 6 mm
zone of inhibition at 16 µg/disc (Helicobacter pylori [5]): 13 mm
zone of inhibition at 32 µg/disc (Helicobacter pylori [6]): 10 mm
zone of inhibition at 16 µg/disc (Helicobacter pylori [7]): 6 mm
zone of inhibition at 8 µg/disc (Helicobacter pylori [8]): 6 mm
zone of inhibition at 32 µg/disc (Helicobacter pylori [10]): 6 mm
zone of inhibition at 64 µg/disc (Helicobacter pylori [11]): 10 mm
zone of inhibition at 64 µg/disc (Helicobacter pylori [12]): 13 mm
zone of inhibition at 16 µg/disc (Helicobacter pylori [13]): 6 mm
